What all share (assay type): cell-based
The test system of one experiment is Caki-1. The experiment in a line: MTS cell proliferation assay, Caki-1 (kidneys). The settings on record: Homo sapiens, 72 hours at 37° C., 490 nm. On the procedure:
(§1) Selected cell lines were incubated for 72 hours at 37° C. with different concentrations of 4-[5-[bis(2-chloroethyl)amino]-4-formyl-1-methyl-1H-benzo[d]imidazol-2-yl]butyric acid (concentrations ranging from 1.5 μmol to 5 mmol per liter). The cells were then incubated with MTS solution (Promega) for 1 hour, and the effects of 4-[5-[bis(2-chloroethyl)amino]-4-formyl-1-methyl-1H-benzo[d]imidazol-2-yl]butyric acid on cell proliferation were determined colorimetrically at 490 nm. Cell growth was expressed as a percentage of the corresponding control (0.5 wt. % dimethyl sulfoxide in water).

Another experiment relates to U87MG. The experiment in a line: MTS cell proliferation assay, U87MG (brain). As to conditions: Homo sapiens, U-87 MG, 72 hours at 37° C., 490 nm. How it is done: as §1
(In general: Tetrazolium dyes change colour on reduction, which living cells bring about.)

The subject of another experiment is A375. The experiment in a line: MTS cell proliferation assay, A375 (skin). As to conditions: Homo sapiens, A-375, 72 hours at 37° C., 490 nm. How it is done: as §1
The test system of the next experiment is Calu-6. The experiment in a line: MTS cell proliferation assay, Calu-6 (lung). The settings on record: Homo sapiens, 72 hours at 37° C., 490 nm. On the procedure:
as §1

Experiment [1] relates to skin cancer, kidney cancer, lung cancer, brain tumors and pancreatic cancer. Description: cancer-cell-killing or cancer-cell-growth-inhibiting effect (summary of example 3). The settings on record: summary statement; compound and its pharmaceutically acceptable salts; concentration at which 50% of the cancer cells are killed. How it is done: IC50 stands for “inhibition concentration,” at which 50% of the cancer cells are killed.
as §1

For another experiment, the system named is BxPC-3. The experiment in a line: MTS cell proliferation assay, BxPC-3 (pancreas). As to conditions: Homo sapiens, 72 hours at 37° C., 490 nm. On the procedure: as §1

Molecules are shown by their SMILES.

As to `Cn1c(CCCC(=O)O)nc2c(C=O)c(N(CCCl)CCCl)ccc21` [4-[5-[bis(2-chloroethyl)amino]-4-formyl-1-methyl-1H-benzo[d]imidazol-2-yl]butyric acid], the IC50 in the experiment on Caki-1 came out at 1600 µM; in the experiment on U87MG, 2900 µM; with A375 it was 1300 µM; in the experiment on Calu-6 it was 1300 µM; in the experiment with BxPC-3, 740 µM. The “low IC50 concentration range” value in experiment [1] is “one hundred”.

As usually defined, the IC50 is the concentration needed to halve the response being measured. A higher IC50 goes with a need for much substance.

These data come from patent US20250295636A1, “METHOD FOR PREPARING 4-[5-[BIS(2-CHLOROETHYL)AMINO]-1-METHYL-1H-BENZO[D]IMIDAZOL-2-YL]BUTYRIC ACID ALKYL ESTERS AND FORMYLATED DERIVATIVES” (HERAEUS PRECIOUS METALS GMBH & CO. KG, priority 2022, published 2025).
